This assay deals with T1, mouse TRPM3a2 (mTRPM3) ion channel (Mus musculus, UniProt J9SQF3).
T1 construct: expressed in transfected cells; host or cells: flip-in HEK293
Kind of assay: TRPM3 ion channel driven Ca2+ uptake, Fluo-4 AM assay (PS-stimulated, overexpressing flip-in HEK293 cells). The format is cell-based. The essentials: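 Flip-in HEK293 cells overexpressing mTRPM3α2, loaded with Fluo-4 AM, were added to wells with compound plus 50 μM pregnenolone sulfate in Ca2+-containing Krebs buffer and read immediately (ex 485/em 535 nm). Percent inhibition was scaled between PS-plus-vehicle and positive-control-inhibitor signals.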

[1] abbreviates: PS (50 μM) stimulated, cpd 001-199.
Where [2] appears, read: PS (50 μM) stimulated Ca2+ influx, HEK293, cpds 200-299.
[3] abbreviates: PS (50 μM) stimulated, cpds. 500-599.

Each structure is given as a SMILES string.

A word on the IC50: it is the concentration needed to halve the response being measured. Low values mean greater potency, high ones weaker potency.

T1 sequence (J9SQF3 1-1709 isoform J9SQF3-12): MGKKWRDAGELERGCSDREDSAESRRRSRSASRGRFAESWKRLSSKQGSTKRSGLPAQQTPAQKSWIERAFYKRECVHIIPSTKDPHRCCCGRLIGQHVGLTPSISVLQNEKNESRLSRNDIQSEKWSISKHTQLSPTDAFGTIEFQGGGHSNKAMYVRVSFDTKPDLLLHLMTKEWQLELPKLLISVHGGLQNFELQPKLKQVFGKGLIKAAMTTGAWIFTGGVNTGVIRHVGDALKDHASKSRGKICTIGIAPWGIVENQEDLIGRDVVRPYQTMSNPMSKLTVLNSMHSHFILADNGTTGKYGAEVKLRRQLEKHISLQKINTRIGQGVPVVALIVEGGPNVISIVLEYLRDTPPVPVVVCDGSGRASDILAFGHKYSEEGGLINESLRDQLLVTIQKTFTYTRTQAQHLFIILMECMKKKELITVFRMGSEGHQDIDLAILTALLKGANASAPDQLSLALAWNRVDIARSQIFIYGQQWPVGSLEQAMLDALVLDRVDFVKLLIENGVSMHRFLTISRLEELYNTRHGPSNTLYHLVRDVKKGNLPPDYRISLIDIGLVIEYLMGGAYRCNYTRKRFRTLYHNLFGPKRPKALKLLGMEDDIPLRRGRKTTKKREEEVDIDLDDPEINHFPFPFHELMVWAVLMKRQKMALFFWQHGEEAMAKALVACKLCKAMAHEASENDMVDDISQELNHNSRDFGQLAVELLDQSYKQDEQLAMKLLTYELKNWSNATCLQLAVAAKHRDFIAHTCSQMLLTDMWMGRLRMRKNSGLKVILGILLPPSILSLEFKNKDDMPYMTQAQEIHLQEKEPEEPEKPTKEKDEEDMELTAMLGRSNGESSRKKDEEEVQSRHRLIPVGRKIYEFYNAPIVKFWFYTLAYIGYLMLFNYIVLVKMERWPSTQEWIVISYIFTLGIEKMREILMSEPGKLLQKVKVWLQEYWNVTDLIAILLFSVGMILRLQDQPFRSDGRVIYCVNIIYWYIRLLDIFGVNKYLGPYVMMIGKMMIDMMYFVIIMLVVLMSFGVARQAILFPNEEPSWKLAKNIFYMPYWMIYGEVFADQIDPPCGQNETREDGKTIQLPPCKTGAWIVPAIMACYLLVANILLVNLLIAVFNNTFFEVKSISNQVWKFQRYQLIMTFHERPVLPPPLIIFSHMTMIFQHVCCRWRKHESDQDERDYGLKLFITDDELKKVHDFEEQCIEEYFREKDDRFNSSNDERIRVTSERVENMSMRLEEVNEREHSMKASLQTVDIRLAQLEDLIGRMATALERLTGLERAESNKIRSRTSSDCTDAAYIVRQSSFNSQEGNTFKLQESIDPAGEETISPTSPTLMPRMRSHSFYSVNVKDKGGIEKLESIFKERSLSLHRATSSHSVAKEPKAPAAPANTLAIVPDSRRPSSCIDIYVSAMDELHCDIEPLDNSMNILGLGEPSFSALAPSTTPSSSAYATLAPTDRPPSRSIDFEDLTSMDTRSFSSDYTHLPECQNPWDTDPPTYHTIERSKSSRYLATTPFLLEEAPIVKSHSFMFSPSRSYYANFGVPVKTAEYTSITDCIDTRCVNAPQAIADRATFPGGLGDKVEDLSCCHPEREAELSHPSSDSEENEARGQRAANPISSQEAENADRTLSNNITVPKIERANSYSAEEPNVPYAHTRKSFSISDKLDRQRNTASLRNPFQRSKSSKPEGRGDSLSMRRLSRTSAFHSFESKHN

Regarding `Cc1ncsc1COc1cc(C)c2oc(C)c(C(=O)NC3(CO)CCOCC3)c2c1` [compound 186, N-(4-(hydroxymethyl)tetrahydro-2H-pyran-4-yl)-2,7-dimethyl-5-((4-methylthiazol-5-yl)methoxy)benzofuran-3-carboxamide], under setting [1], the IC50 is 1000 to 20000 nM.

With `Cc1ncsc1COc1cc(C#N)c2oc(C)c(C(=O)NC3(CO)CCOCC3)c2c1` [compound 188, 7-cyano-N-(4-(hydroxymethyl)tetrahydro-2H-pyran-4-yl)-2-methyl-5-((4-methylthiazol-5-yl)methoxy)benzofuran-3-carboxamide], the IC50 under setting [1] was 1000 to 20000 nM.

Under setting [2], `Cc1ncsc1COc1ccc2oc(C)c(C(=O)NC3(CO)CNC3)c2c1` [compound 201, N-(3-(hydroxymethyl)azetidin-3-yl)-2-methyl-5-((4-methylthiazol-5-yl)methoxy)benzofuran-3-carboxamide] yielded an IC50 of 1000 to 20000 nM.

Regarding `Cc1oc2ccc(OCc3cccnc3C(F)(F)F)cc2c1C(=O)NC1(CO)CNC1` [compound 202, N-(3-(hydroxymethyl)azetidin-3-yl)-2-methyl-5-((2-(trifluoromethyl)pyridin-3-yl)methoxy)benzo-furan-3-carboxamide], the half-maximal inhibitory concentration (IC50) under setting [2] lay within 1000 to 20000 nM.

In the case of `Cc1oc2ccc(OCc3cccnc3O)c(F)c2c1C(=O)NC1(CO)CCOCC1` [compound 329, 4-fluoro-N-(4-(hydroxymethyl)tetrahydro-2H-pyran-4-yl)-2-methyl-5-((2-oxo-1,2-dihydropyridin-3-yl)methoxy)benzofuran-3-carboxamide], where the note is “PS (50 μM) stimulated Ca2+ influx, HEK293, cpds 300-399”, the IC50 lay in the range of 1000 to 20000 nM.

Take `Cc1ncsc1COc1ccc2oc(C)c(C(=O)N(C)C3(C(N)=O)COC3)c2c1` [compound 589, N-(3-carbamoyloxetan-3-yl)-N,2-dimethyl-5-((4-methylthiazol-5-yl)methoxy)benzofuran-3-carboxamide]: the half-inhibitory concentration (IC50) under setting [3] was ≤ 1000 nM.

Under setting [3], `Cc1ncsc1COc1ccc2oc(C)c(C(=O)N(C)C3(C#N)COC3)c2c1` [compound 599, N-(3-cyanooxetan-3-yl)-N,2-dimethyl-5-((4-methylthiazol-5-yl)methoxy)benzofuran-3-carboxamide] gave an IC50 of 1000 to 20000 nM.

For the compound `Cc1oc2ccc(OCc3ccoc3)cc2c1C(=O)O` [cpd 001, 5-(furan-3-ylmethoxy)-2-methylbenzofuran-3-carboxylic acid], the IC50 under setting [1] fell in the range of 1000 to 20000 nM.

Consider `Cc1oc2ccc(OCc3cnco3)cc2c1C(=O)O` [cpd 002, 2-methyl-5-(oxazol-5-ylmethoxy)benzofuran-3-carboxylic acid], for which the half-inhibitory concentration (IC50) under setting [1] was ≥ 20000 nM.

`Cc1oc2ccc(OCc3ccccn3)cc2c1C(=O)O` [cpd 005, 2-methyl-5-(pyridin-2-ylmethoxy)benzofuran-3-carboxylic acid] had an IC50 under setting [1] of 1000 to 20000 nM.

Compound `Cc1oc2ccc(OCc3cccnc3)cc2c1C(=O)O` [cpd 006, 2-methyl-5-(pyridin-3-ylmethoxy)benzofuran-3-carboxylic acid] returned an IC50 under setting [1] of 1000 to 20000 nM.

`Cc1oc2ccc(OCc3cccnn3)cc2c1C(=O)O` [cpd 007, 2-methyl-5-(pyridazin-3-ylmethoxy)benzofuran-3-carboxylic acid] displayed an IC50 under setting [1] of 1000 to 20000 nM.

Turning to `Cc1oc2ccc(OCc3ccn(C)n3)cc2c1C(=O)O` [cpd 009, 2-methyl-5-((1-methyl-1H-pyrazol-3-yl)methoxy)benzofuran-3-carboxylic acid], the IC50 under setting [1] was in the range of 1000 to 20000 nM.

Turning to `Cc1oc2ccc(OCc3cnn(C)c3)cc2c1C(=O)O` [cpd 010, 2-methyl-5-((1-methyl-1H-pyrazol-4-yl)methoxy)benzofuran-3-carboxylic acid], the concentration for half-maximal inhibition (IC50) under setting [1] was 1000 to 20000 nM.

In turn, `Cc1oc2ccc(OCc3ccsc3)cc2c1C(=O)O` [cpd 011, 2-methyl-5-(thiophen-3-ylmethoxy)benzofuran-3-carboxylic acid] had an IC50 under setting [1] of 1000 to 20000 nM.

Take `Cc1oc2ccc(OCc3cccs3)cc2c1C(=O)O` [cpd 012, 2-methyl-5-(thiophen-2-ylmethoxy)benzofuran-3-carboxylic acid]: the IC50 under setting [1] lay in the range of 1000 to 20000 nM.

In turn, `Cc1oc2ccc(OCc3nccs3)cc2c1C(=O)O` [cpd 013, 2-methyl-5-(thiazol-2-ylmethoxy)benzofuran-3-carboxylic acid] yielded an IC50 under setting [1] of 1000 to 20000 nM.

`Cc1oc2ccc(OCc3cncs3)cc2c1C(=O)O` [cpd 014, 2-methyl-5-(thiazol-5-ylmethoxy)benzofuran-3-carboxylic acid] came in with an IC50 under setting [1] of 1000 to 20000 nM.

Consider `Cc1oc2ccc(OCC3CCOCC3)cc2c1C(=O)O` [cpd 015, 2-methyl-5-((tetrahydro-2H-pyran-4-yl)methoxy)benzofuran-3-carboxylic acid], for which the IC50 under setting [1] fell in the range of 1000 to 20000 nM.

As for `Cc1oc2ccc(OCc3ccc(C(F)(F)F)o3)cc2c1C(=O)O` [cpd 018, 2-methyl-5-((5-(trifluoromethyl)furan-2-yl)methoxy)benzofuran-3-carboxylic acid], the IC50 under setting [1] lay in the range of 1000 to 20000 nM.

`Cc1oc2ccc(OCc3cnco3)cc2c1C(=O)N[C@H]1CCNC1` [cpd 020, (S)-2-methyl-5-(oxazol-5-ylmethoxy)-N-(pyrrolidin-3-yl)benzofuran-3-carboxamide] showed an IC50 under setting [1] of 1000 to 20000 nM.

Under setting [1], `Cc1oc2ccc(OCc3ccncc3)cc2c1C(=O)N[C@H]1CCNC1` [cpd 021, (S)-2-methyl-5-(pyridin-4-ylmethoxy)-N-(pyrrolidin-3-yl)benzofuran-3-carboxamide] had an IC50 of 1000 to 20000 nM.

Take `Cc1oc2ccc(OCc3ccn(C)n3)cc2c1C(=O)N[C@H]1CCNC1` [cpd 023, (S)-2-methyl-5-((1-methyl-1H-pyrazol-3-yl)methoxy)-N-(pyrrolidin-3-yl)benzofuran-3-carboxamide]: the IC50 under setting [1] fell in the range of 1000 to 20000 nM.

`Cc1oc2ccc(OCc3cnccn3)cc2c1C(=O)NC1CCNC1=O` (stereo not drawn) [cpd 031, 2-methyl-N-(2-oxopyrrolidin-3-yl)-5-(pyrazin-2-ylmethoxy)benzofuran-3-carboxamide] returned an IC50 under setting [1] of 1000 to 20000 nM.

Consider `Cc1oc2ccc(OCc3cncnc3)cc2c1C(=O)NC1CCNC1=O` (stereo not drawn) [cpd 032, 2-methyl-N-(2-oxopyrrolidin-3-yl)-5-(pyrimidin-5-ylmethoxy)benzofuran-3-carboxamide], for which the IC50 under setting [1] fell in the range of 1000 to 20000 nM.

Under setting [1], `Cc1ccncc1COc1ccc2oc(C)c(C(=O)NC3CCOC3)c2c1` (stereo not drawn) [cpd 034, 2-methyl-5-((4-methylpyridin-3-yl)methoxy)-N-(tetrahydrofuran-3-yl)benzofuran-3-carboxamide] yielded an IC50 of 1000 to 20000 nM.

In the case of `Cc1ccncc1COc1ccc2oc(C)c(C(=O)NC3CCNC3=O)c2c1` (stereo not drawn) [cpd 037, 2-methyl-5-((4-methylpyridin-3-yl)methoxy)-N-(2-oxopyrrolidin-3-yl)benzofuran-3-carboxamide], the IC50 under setting [1] is 1000 to 20000 nM.

Take `Cc1oc2ccc(OCc3ccccn3)cc2c1C(=O)NC1CCN(C)CC1` [cpd 039, 2-methyl-N-(1-methylpiperidin-4-yl)-5-(pyridin-2-ylmethoxy)benzofuran-3-carboxamide]: the IC50 under setting [1] fell in the range of 1000 to 20000 nM.

Regarding `Cc1ccc(COc2ccc3oc(C)c(C(=O)NC4CCNC4=O)c3c2)c(C)n1` (stereo not drawn) [cpd 044, 5-((2,6-dimethylpyridin-3-yl)methoxy)-2-methyl-N-(2-oxopyrrolidin-3-yl)benzofuran-3-carboxamide], the half-inhibitory concentration (IC50) under setting [1] was in the range of 1000 to 20000 nM.

For `Cc1oc2ccc(OC(C)c3ccncc3)cc2c1C(=O)NC1CCN(C)CC1` (stereo not drawn) [cpd 045, 2-methyl-N-(1-methylpiperidin-4-yl)-5-(1-(pyridin-4-yl)ethoxy)benzofuran-3-carboxamide], the IC50 under setting [1] is 1000 to 20000 nM.

In the case of `Cc1oc2ccc(OCc3nccs3)cc2c1C(=O)NC1CCNCC1(F)F` (stereo not drawn) [cpd 050, N-(3,3-difluoropiperidin-4-yl)-2-methyl-5-(thiazol-2-ylmethoxy)benzofuran-3-carboxamide], the IC50 under setting [1] is ≤ 1000 nM.

In turn, `Cc1ccncc1COc1ccc2oc(C)c(C(=O)NC3(CO)CCOCC3)c2c1` [cpd 052, N-(4-(hydroxymethyl)tetrahydro-2H-pyran-4-yl)-2-methyl-5-((4-methylpyridin-3-yl)methoxy)-benzofuran-3-carboxamide] came in with an IC50 under setting [1] of 1000 to 20000 nM.

For the compound `Cc1cccnc1COc1ccc2oc(C)c(C(=O)NC3CCNCC3(F)F)c2c1` (stereo not drawn) [cpd 053, N-(3,3-difluoropiperidin-4-yl)-2-methyl-5-((3-methylpyridin-2-yl)methoxy)benzofuran-3-carboxamide], the half-maximal inhibitory concentration (IC50) under setting [1] was 1000 to 20000 nM.

In turn, `Cc1oc2ccc(OCc3nccc4ccccc34)cc2c1C(=O)NC1CCN(C)CC1` [cpd 059, 5-(isoquinolin-1-ylmethoxy)-2-methyl-N-(1-methylpiperidin-4-yl)benzofuran-3-carboxamide] displayed an IC50 under setting [1] of 1000 to 20000 nM.

`Cc1oc2ccc(OCc3cccc4cnccc34)cc2c1C(=O)NC1CCN(C)CC1` [cpd 060, 5-(isoquinolin-5-ylmethoxy)-2-methyl-N-(1-methylpiperidin-4-yl)benzofuran-3-carboxamide] returned a concentration for half-maximal inhibition (IC50) under setting [1] of 1000 to 20000 nM.

As to `COc1ncccc1COc1ccc2oc(C)c(C(=O)NC3CCNCC3(F)F)c2c1` (stereo not drawn) [cpd 062, N-(3,3-difluoropiperidin-4-yl)-5-((2-methoxypyridin-3-yl)methoxy)-2-methylbenzofuran-3-carboxamide], the IC50 under setting [1] was ≤ 1000 nM.

With `Cc1oc2ccc(OCc3cccc(C(F)(F)F)n3)cc2c1C(=O)NC1CCNC1=O` (stereo not drawn) [cpd 065, 2-methyl-N-(2-oxopyrrolidin-3-yl)-5-((6-(trifluoromethyl)pyridin-2-yl)methoxy)benzofuran-3-carboxamide], the IC50 under setting [1] lay in the range of 1000 to 20000 nM.

`Cc1oc2ccc(OCc3ccc(C(F)(F)F)nc3)cc2c1C(=O)NC1CCNC1=O` (stereo not drawn) [cpd 066, 2-methyl-N-(2-oxopyrrolidin-3-yl)-5-((6-(trifluoromethyl)pyridin-3-yl)methoxy)benzofuran-3-carboxamide]: the IC50 under setting [1] was in the range of 1000 to 20000 nM.

Turning to `Cc1oc2ccc(OCc3ccc(C(F)(F)F)o3)cc2c1C(=O)NC1CCN(C)CC1` [cpd 069, 2-methyl-N-(1-methylpiperidin-4-yl)-5-((5-(trifluoromethyl)furan-2-yl)methoxy)benzofuran-3-carboxamide], under setting [1], the IC50 was 1000 to 20000 nM.

The values above are taken from patent US20240336602A1 (Katholieke Universiteit Leuven, priority 2020, published 2024).
